What was measured:
[1] = Relative crystallographic stability of the crystal forms; type: physicochemical; conditions: comparison of crystal forms A, B and C
[2] = Transition of crystal form B into crystal form A in a heated acetone/water slurry, followed by IR spectrum; type: physicochemical; conditions: suspended in acetone (51.2 g) and water (17.1 g), stirred while heating at 40° C.
Experimental: Crystal form B of 3-(2,4-dichlorobenzyl)-2-methyl-N-(pentylsulfonyl)-3H-benzimidazole-5-carboxamide (5.0 g) was suspended in a mixed solvent consisting of acetone (51.2 g) and water (17.1 g), and the resulting slurry was stirred while heating at 40° C. About 4 hours later, crystals in the slurry completely transitioned into those with the IR spectrum that agreed with the spectrum of crystal form A of 3-(2,4-dichlorobenzyl)-2-methyl-N-(pentylsulfonyl)-3H-benzimidazole-5-carboxamide.

Row | Structure (SMILES) | crystallographic stability relative to the other crystal forms ([1]; listed as crystal form A) | crystallographic stability relative to the other crystal forms ([1]; listed as crystal form B) | time until crystals in the slurry completely transitioned into crystal form A [2]
1 | CCCCCS(=O)(=O)NC(=O)c1ccc2nc(C)n(Cc3ccc(Cl)cc3Cl)c2c1 [Crystal form A, 3-(2,4-dichlorobenzyl)-2-methyl-N-(pentylsulfonyl)-3H-benzimidazole-5-carboxamide] | crystallographically more stable than crystal form B and C |  | 
2 | CCCCCS(=O)(=O)NC(=O)c1ccc2nc(C)n(Cc3ccc(Cl)cc3Cl)c2c1 [Crystal form B, 3-(2,4-dichlorobenzyl)-2-methyl-N-(pentylsulfonyl)-3H-benzimidazole-5-carboxamide] |  | not as crystallographically stable as crystal form A | About 4 hours
